Measured values: patent US11110078B2, “Composition and method for treatment of diseases associated with central nervous system inflammation” (AMRITA VISHWA VIDYAPEETHAM, priority 2019, dated 2021)

Key:
[1] = tested on: astrocytes; assay: MTT cell viability assay on cultured astrocytes; assay type: cell-based; conditions: 48 hours incubation, 0-3 mg/mL tested
Experimental: In order to test whether virtually screened GMFBI.1 drug like compound is toxic to the cells, different concentrations (0-3 mg/mL) of GMFBI.1 on astrocytes were tested. Test includes performing MTT cell viability assay following 48 hours of incubation with GMFBI.1. […] NC represents […] with 10% Triton X-100.

[2] = Distribution into brain of EAE mice; assay type: in vivo
Experimental: (§1) The GMFBI.1 compound distribution in various compartments (organs, plasma & urine) of normal healthy mice at different time intervals (30 minutes, 1, 2, 3 and 6 hours) and its distribution profile (n=3 per group), is shown in FIG. 6C. […] Further, again 300 μg of GMFBI.1 was injected in EAE animals and the blood brain barrier is compromised as in MS patients. […] Based on these observations, mice was injected twice daily with 300 μg/mice (12 mg/Kg) GMFBI.1 for 25 days. Both AST and ALT activity was measured at 3, 10 and 25 days.
(§2) Treatment was given to a group of animals with average clinical score of 3 for a period of 2 weeks. EAE induced animals were injected at clinical score 3.5 with GMFBI.1 compound 300 μg/mice (12 mg/Kg) twice daily at day 13.EAE clinical scores of C57BL/6 mice treated with GMFBI.1 compound ([…] i.p twice daily) and controls with saline (n=5 per group) is shown in FIG. 7A.

[3] = target: GMF-β (Homo sapiens, UniProt P60983); assay: In vitro phosphorylation of purified GMF-β by PKA; assay type: biochemical; conditions: 250 ng/mL GMFBI.1, 1 μg/mL GMF-β, versus lane without compound
Experimental: With the in silico proof of concept showing high binding efficacy to GMF-β phosphorylation sites, in vitro phosphorylation studies using PKA (PKA phosphorylation results in activation of the downstream proinflammatory cascade) and purified GMF-β in presence and absence of GMFBI.1 compound is performed. […] In FIG. 4B, “+” sign indicates experiment with 1 μg/mL GMF-β and PKA, “−” indicates control reaction in the absence of PKA and “GMFBI.1” indicates phosphorylation level on GMF-β in the presence of small molecule GMFBI.1 (250 ng/mL).

[4] = tested on: proinflammatory and anti-inflammatory cytokines; assay: Cytokine levels in treated EAE animals (relative fold change); assay type: in vivo, C57BL/6 mice
Excerpt: From FIG. 7G, it is observed that down regulation of these inflammatory cytokines has potential significance in the therapy and increased levels of anti-inflammatory cytokines particularly IL-10 and TGF beta levels. In MS patients, the levels of TGF beta and IL-10 are low compared to healthy individuals and significant down regulation of IL-17 are promising as IL-17 drives the inflammation in EAE and MS disease.

[5] = tested on: EAE induced animals; assay: Leukocyte infiltrates in brain and spinal cord of EAE animals by H and E staining; assay type: in vivo, C57BL/6 mice; conditions: 25 days after treatment, versus saline treated EAE controls, P<0.05, n=3
Excerpt: (§3) Animals were sacrificed 25 days after GMFBI.1 compound treatment and the levels of leukocyte infiltrates in brain as shown in FIG. 7C and spinal cord as shown in FIG. 7D were compared against EAE control by Haematoxylin and Eosin(H and E) staining.

[6] = tested on: NFκB; assay: NFκB expression in LPS stimulated cultured astrocytes; assay type: cell-based; conditions: 500 ng/mL, n=3
[7] = Bio-distribution in compartments of normal healthy mice; assay type: in vivo, C57BL/6 mice; conditions: 300 μg intraperitoneal
Experimental: as §1

[8] = In vivo toxicity: serum AST and ALT liver enzymes; parameters: species or system mice; conditions: 3, 10 and 25 days
Experimental: In vitro efficacy of GMFBI.1 compound in down regulating the expression of both proinflammatory mediators p38MAPK and NFκB under the control of GMF-β and its non-toxic nature at lower concentrations was first evaluated. The levels of aspartate amino transferase (AST) and alanine amino transferase (ALT) were measured spectrophotometrically from serum of GMFBI.1 compound administered animals to monitor its liver function as shown in FIG. 6A and FIG. 6B respectively. […] Grey shaded region denotes the normal range of AST and ALT enzymes in mice in FIG. 6A and FIG. 6B respectively.
The GMFBI.1 compound distribution in various compartments (organs, plasma & urine) of normal healthy mice at different time intervals (30 minutes, 1, 2, 3 and 6 hours) and its distribution profile (n=3 per group), is shown in FIG. 6C. […] Further, again 300 μg of GMFBI.1 was injected in EAE animals and the blood brain barrier is compromised as in MS patients. […] Both AST and ALT activity was measured at 3, 10 and 25 days.

[9] = tested on: p38MAPK; assay: p38MAPK expression in LPS stimulated cultured astrocytes; assay type: cell-based; conditions: 500 ng/mL, n=3
[10] = tested on: EAE induced animals; assay: Reversal of EAE: clinical scores in paralyzed EAE animals; assay type: in vivo, C57BL/6 mice
Experimental: as §2, §3

[11] = versus untreated EAE controls, n=3
[12] = 300 μg/mice twice daily for 25 days

Chain of GMF-β (P60983 2-142 limits assumed): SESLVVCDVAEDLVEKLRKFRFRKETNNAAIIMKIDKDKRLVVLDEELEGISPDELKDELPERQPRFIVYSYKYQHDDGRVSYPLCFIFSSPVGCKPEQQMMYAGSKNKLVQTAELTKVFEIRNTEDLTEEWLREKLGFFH

Q: Which “concentration up to which astrocytes remained viable” value [1] does the source give for `OCc1cccc2[nH]ncc12` [GMFBI.1, (1-H Indazol-4-yl)-methanol] here?
A: ≤ 1000 µg/mL

Q: And the “amount of compound in brain by 3 hrs” value ([2]; 300 μg injected, EAE animals)?
A: ≤ 15 µg

Q: And the “compound in brain by 6 hrs” value ([2]; 300 μg injected, EAE animals)?
A: no GMFBI.1 may be detected in the brain

Q: And the “time by which compound is detected in brain” value ([2]; 300 μg injected, EAE animals)?
A: ≤ 2 h

Q: What about the “blood brain barrier crossing” value ([2]; EAE mice) of the same compound?
A: able to cross the blood brain barrier

Q: And the “retention in the system” value ([2]; EAE mice)?
A: at least three hours

Q: What about the “phosphorylation of GMF-β by PKA” value [3] of the same compound?
A: several fold decrease in phosphorylation

Q: And the IL1-β level ([4]; following treatment)?
A: down regulated significantly

Q: And the GMCSF level ([4]; versus EAE controls, n=3)?
A: significant decrease

Q: And the IFN-γ level ([4]; versus EAE controls, n=3)?
A: significant decrease

Q: And the IL-6 level ([4]; versus EAE controls, n=3)?
A: significant decrease

Q: What about the IL-17A level ([4]; versus EAE controls, n=3) of the same compound?
A: significant decrease

Q: And the TNF-α level ([4]; versus EAE controls, n=3)?
A: significant decrease

Q: What about the “IL-10 level (anti-inflammatory)” value [4, 11] of the same compound?
A: elevated significantly

Q: What about the “TGF-β level (anti-inflammatory)” value [4, 11] of the same compound?
A: elevated significantly

Q: And the “number of cellular infiltrates in brain” value [5]?
A: significant reduction in the number of cellular infiltrates

Q: And the “number of cellular infiltrates in spinal cord” value [5]?
A: significant reduction in the number of cellular infiltrates

Q: And the NFκB protein expression [6]?
A: statistically significant suppression

Q: What about the “amount of compound in liver within three hours” value [7] of the same compound?
A: significantly reduced compared to 2 hrs

Q: What about the “compound in brain of healthy mice at any time period” value [7] of the same compound?
A: no GMFBI.1 compound was detected in the brains

Q: What about the “compound in kidney within three hours” value [7] of the same compound?
A: transiently seen in kidney

Q: What about the “compound in plasma at 30 mins to 1 hr” value [7] of the same compound?
A: most of the GMFBI.1 compound remained in the plasma

Q: And the “compound in plasma by two hours” value [7]?
A: no GMFBI.1 compound could be detected in plasma

Q: What about the “compound in urine within three hours” value [7] of the same compound?
A: found majorly in urine

Q: And the “free compound in organs by 6 hrs” value [7]?
A: no free GMFBI.1 compound in any of the organs were detected

Q: And the “ALT activity level versus control” value [8, 12]?
A: remained similar to that of control

Q: What about the “AST activity level versus control” value [8, 12] of the same compound?
A: remained similar to that of control

Q: What about the “serum ALT level versus saline controls” value ([8]; 14 mg/kg twice daily) of the same compound?
A: No significant difference

Q: And the “serum AST level versus saline controls” value ([8]; 14 mg/kg twice daily)?
A: No significant difference

Q: What about the p38MAPK protein expression [9] of the same compound?
A: statistically significant suppression

Q: And the “EAE clinical score by day 18” value ([10]; 300 μg/mice (12 mg/Kg; also printed 14 mg/kg i.p) twice daily from day 13, n=5)?
A: the clinical score started to improve

Q: What about the “clinical score versus control” value ([10]; from 7th day after treatment, P<0.001) of the same compound?
A: Significant reduction in the clinical score

Q: And the “body weight over time versus control animals” value ([10]; treated EAE animals)?
A: significant weight gain

Q: And the “EAE clinical score by day 40” value ([10]; twice daily i.p. from day 13)?
A: very low clinical score

Q: What about the “locomotor motion by day 30” value ([10]; twice daily i.p. from day 13) of the same compound?
A: able to show improvements in locomotor motion and was able to walk
